In brackets after ≈: the same amount, converted by molar mass.
Conditions: buffer; pH 7.4; 200.0 µM

Compound | solubility kinetic [µg/mL]
Cc1cccc(NC(=O)C2CCCN2C(=O)NC2CCCCC2)c1 (stereo not given) | 3.1 (≈ 9.41 µM)
CC(CCc1ccccc1)NC(=O)CCC1CCCC1 (stereo not given) | 14.5 (≈ 53 µM)
O=[N+]([O-])c1ccc(CN2CCN(c3ccc(F)cc3)CC2)o1 | 15 (≈ 49.1 µM)
COc1ccc(CNC(=O)COC(=O)c2cc3ccccc3cc2O)cc1OC | 25.9 (≈ 65.5 µM)
Cl.Fc1ccc(Nc2nc(NCc3ccco3)c3ccccc3n2)cc1 | 2.1
O=C(NCc1ccncc1)Nc1cccc([N+](=O)[O-])c1 | > 40.8
Cn1nnc(NC(=O)c2ccc(Br)o2)n1 | > 40.8
CCOC(=O)c1csc(NC(=O)CN2CCN(C)CC2)n1 | > 46.9
Cc1ccc(S(=O)(=O)N[C@H](C(=O)OCC(=O)NC(=O)C2CCCCC2)C(C)C)cc1 | 11.4 (≈ 26 µM)
COc1ccc(NC(=O)CN2CCN(S(=O)(=O)N(C)C)CC2)cc1 | > 53.5
Cc1ccc(CNC(=O)CCCc2cn(C)c3ccccc23)cc1 | 0.4 (≈ 1.25 µM)
O=S(=O)(NCc1ccccn1)c1cc(Cl)ccc1Cl | > 47.6
CCOC(=O)C1CCCN(Cc2cc(=O)oc3cc(C)ccc23)C1 (stereo not given) | 40.5 (≈ 123 µM)
CCNc1nc(NCC)nc(NC(N)=S)n1 | 9 (≈ 37.3 µM)
CCCC(=O)NC(=S)Nc1cccc(Cl)c1N1CCCC1 | 0.5 (≈ 1.53 µM)
Cc1cn(C2OC(CC(=O)Oc3ccccc3)C(O)C2O)c(=O)[nH]c1=O (stereo not given) | 48.5 (≈ 134 µM)
COc1cc(C(=O)NC2CCCc3ccccc32)cc(OC)c1C (stereo not given) | < 0.7
CN1CCC2(CC1)N=C(c1ccc(F)cc1)C(=S)N2 | 39.8 (≈ 143 µM)
O=C(COC(=O)c1ccc(Cl)nc1)Nc1ccc2c(c1)OCO2 | > 50.2
COc1ccc(OC)c(C(=O)CN2C(=O)C(=O)N(C3CCCC3)C2=O)c1 | 41.3 (≈ 115 µM)

Compound | solubility kinetic [µg/mL]
O=Cc1cn(CC(=O)Nc2ccccc2)c2ccccc12 | 4.1 (≈ 14.7 µM)
Nc1cc(N2CCCC2)ccc1[N+](=O)[O-] | 2.8 (≈ 13.5 µM)
Cc1ccc(C(=O)NCC(=O)NCCCc2ccccc2)cc1 | > 46.6
Cc1cnc(NC(=O)/C=C/c2ccc(Br)o2)s1 | 0.8 (≈ 2.55 µM)
Cc1ccc(S(=O)(=O)NCc2c(-c3ccccc3)noc2C)cc1 | 40.9 (≈ 119 µM)
Cc1cccc(C(=O)OCC(=O)NC(=O)Cc2ccccc2)c1O | 5.8 (≈ 17.7 µM)
CCN=c1sc(C(=O)Nc2ccccc2)c(C)n1CC | 43 (≈ 149 µM)
CCOC(=O)C1CCN(CC(=O)c2c(C)n(C)c3ccc(OC)cc23)CC1 | > 55.9
O=C1/C(=C/c2ccc([N+](=O)[O-])cc2)CCC1C1CCCC1 (stereo not given) | 1 (≈ 3.5 µM)
CCOC(=O)c1sc(-c2ccccn2)nc1C | 23.4 (≈ 94.2 µM)
Cc1nc2ccccn2c1-c1csc(Nc2ccc(C(=O)O)cc2)n1 | 2.5 (≈ 7.13 µM)
Cc1ccsc1C(=O)OCC(=O)NCCCc1ccccc1 | 6.2 (≈ 19.5 µM)
COc1ccccc1C(=O)COC(=O)COc1ccc(C#N)cc1 | > 48.8
COC(=O)c1c(O)cc(=O)n2c1CCCCC2 | 33.3 (≈ 140 µM)
O=C(Nc1ccc(OCc2ccccc2)cc1)Nc1cccnc1 | 1.2 (≈ 3.76 µM)
CN(C)c1cccc(C(=O)Nc2ccc(S(=O)(=O)Nc3nccs3)cc2)c1 | > 60.4
COC(=O)c1ccc(COc2ccc(C)cc2[N+](=O)[O-])o1 | 3.3 (≈ 11.3 µM)
CC(C)NC(=O)C(=O)NCc1ccccn1 | > 33.2
OCCN1CCOCCOc2ccccc2OCCOCC1 | > 46.7
CN1CCN(C(=S)NC(=O)/C=C/c2cccs2)CC1 | 41.9 (≈ 142 µM)

Compound | solubility kinetic [µg/mL]
Cc1ccsc1C(=O)N1CCN(c2ncccn2)CC1 | > 43.3
O=C(C1CCCN1S(=O)(=O)c1ccc(Cl)cc1)N1CCN(c2ccccc2)CC1 (stereo not given) | 15.3 (≈ 35.3 µM)
CN1CCC(N(C)C(=O)c2cc(S(=O)(=O)N3CCOCC3)ccc2Cl)CC1.Cl | > 67.9
O=C(CCC(=O)NCc1ccccc1)NCc1ccccc1 | 12.7 (≈ 42.9 µM)
CC(C)(C)NC(=O)NC(=O)COC(=O)c1cc[n+]([O-])cc1 | > 44.3
COc1cc(F)ccc1S(=O)(=O)n1c(C)nc2ccccc21 | > 48.1
CC(C)(C)NC(=O)COC(=O)CCC(=O)c1ccc(F)cc1 | > 46.4
CN1CC(=O)N(CC(=O)Nc2ccc3c(c2)CCC3)C1=O | > 43.1
CC1CCCN(C(=O)C2CCN(C(=O)Nc3ccccc3)CC2)C1 (stereo not given) | > 49.4
O=c1nc(-c2ccccc2)c2cc(SC(F)F)ccc2[nH]1 | 1.4 (≈ 4.6 µM)
Cc1c(C(=O)OCC(=O)N2CCCC2)cccc1[N+](=O)[O-] | > 43.8
CCc1ccccc1Nc1nc(-c2cccnc2)cs1 | 3.6 (≈ 12.8 µM)
Cc1oc(C(C)(C)C)cc1C(=O)Nc1ccc(N2CCOCC2)cc1 | 4.3 (≈ 12.6 µM)
COc1ccccc1N1CCN(C(=O)Cc2ccc(Cl)cc2)CC1 | 50.6 (≈ 147 µM)
CC1Cc2ccccc2N1Cc1cccc([N+](=O)[O-])c1 (stereo not given) | 3.6 (≈ 13.4 µM)
Clc1ccc(COn2ccnc2)cc1Cl | > 36.5
Cc1ccc(NC2Sc3ccccc3NC2=O)cc1 (stereo not given) | 9.6 (≈ 35.5 µM)
Cc1ccc(NC(=O)N2CCCC(c3ccccc3)C2)cc1 (stereo not given) | 1.6 (≈ 5.43 µM)
CS(=O)(=O)N1CCSC1c1ccc(Br)cc1 (stereo not given) | 47.8 (≈ 148 µM)
O=C(NCc1ccccc1F)c1ccc2c(c1)OCCO2 | > 43.1

Reference: PubChem BioAssay AID1996
